# Test results: publication doi:10.1101/2022.10.18.512764v1 (bioRxiv, 2022)
# Experiments:
# [1] = system: HeLa; test: TMR-TAT endocytic uptake measured by flow cytometry; format: cell-based
# [2] = system: HeLa; test: Quantification of TMR-TAT puncta by 100x fluorescence microscopy; format: cell-based; conditions: TMR-TAT 5 µM, 1 h, 100x deconvoluted images, individual puncta
sequence,measurement,setting,value
RKKQRRRG [TMR-TAT],Effect of cell aging on endocytosis,"[1]; HeLa cultured 2, 10, 25 days, TMR-TAT 5 µM, 1 h, Fig S1",no effect
same,"Difference in uptake between growth in LG-DMEM and HG-DMEM, incubation in L-15","[1]; HeLa grown 24 h, TMR-TAT 5 µM 1 h in L-15, Fig 3B",not detectable
same,Rate of TMR-TAT uptake at 25°C as percentage of that at 37°C,"[1]; HeLa, TMR-TAT 5 µM in L-15, 5-60 min",approximately 50%
same,"Uptake less at 25°C than at 37°C, fold","[1]; HeLa, TMR-TAT 5 µM in L-15, 60 min incubation time point, Fig 4",1.9 fold
same,Effect of removing glucose from DMEM during incubation on uptake,"[1]; HeLa, TMR-TAT 5 µM, 1 h, DMEM 0 vs 25 mM glucose, Fig 3C",reduction
same,Effect of adding glucose to L15 on uptake,"[1]; HeLa, TMR-TAT 5 µM, 1 h, L15 25 vs 0 mM glucose (5 mM galactose), Fig 3C",increased
same,Effect of 0 wash on uptake,"[1]; HeLa, TMR-TAT 5 µM, 1 h, possibly because of unwashed BSA, Fig S4",uptake is inhibited
same,"Difference between MUP and HUP, fold MFI change","[1]; HeLa, TMR-TAT 5 µM, 1 h, discussion",2.3 fold
same,"Fold increase in uptake, HUP compared to LUP","[1]; HeLa, TMR-TAT 5 µM, 1 h, using a median of 0.8 × 10^3 for untreated cells",13 fold
same,"Endocytosis higher in DMEM (serum free) than in L-15, factor","[1]; HeLa, TMR-TAT 5 µM, 1 h incubation, Fig 3A",1.4 fold
same,"Average pixel intensity of puncta, HUP versus MUP",[2],not statistically different
